Test results as given in PMC7155171, “Probing the Open Global Health Chemical Diversity Library for Multistage-Active Starting Points for Next-Generation Antimalarials” (ACS Infectious Diseases, 2020).
Where two headings read alike, the source gives them in different places.

What was measured:
[1] = system: HepG2-A16-CD81 hepatocytes; assay: HepG2 cytotoxicity screening (CellTiter-Glo); settings: for HepG2 cytotoxicity 12pt dose response: Maximum inhibition (%): 12pt dose response
[2] = system: P. berghei liver stage (PbLuc); assay: P. berghei luciferase liver stage (PbLuc) assay in HepG2-A16-CD81 hepatocytes; format: cell-based, Plasmodium berghei; settings: Plasmodium berghei; for Emax: 12pt dose response, maximum inhibition
[3] = HepG2 cytotoxicity screening (CellTiter-Glo); settings: human, uninfected HepG2-A16-CD81 (EGFP) hepatocytes
[4] = target: recombinant firefly luciferase (Photinus pyralis, UniProt P08659); assay: biochemical; settings: dose response
Chain of recombinant firefly luciferase (P08659 whole entry): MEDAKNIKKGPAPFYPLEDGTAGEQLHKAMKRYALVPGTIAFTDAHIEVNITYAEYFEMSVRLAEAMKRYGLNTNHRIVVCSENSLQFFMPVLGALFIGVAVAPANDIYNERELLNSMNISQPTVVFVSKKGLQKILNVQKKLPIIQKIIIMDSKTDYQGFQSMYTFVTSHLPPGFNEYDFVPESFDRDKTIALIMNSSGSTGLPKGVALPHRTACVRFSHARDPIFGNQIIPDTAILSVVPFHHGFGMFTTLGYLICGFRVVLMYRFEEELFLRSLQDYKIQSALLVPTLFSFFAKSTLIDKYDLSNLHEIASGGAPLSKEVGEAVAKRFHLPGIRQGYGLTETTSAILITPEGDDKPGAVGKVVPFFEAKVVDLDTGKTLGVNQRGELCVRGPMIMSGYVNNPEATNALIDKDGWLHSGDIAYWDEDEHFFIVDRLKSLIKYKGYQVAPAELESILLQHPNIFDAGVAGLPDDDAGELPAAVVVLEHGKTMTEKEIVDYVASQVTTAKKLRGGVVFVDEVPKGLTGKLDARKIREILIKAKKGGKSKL

[5] = HepG2-A16-CD81, 12pt dose response, read-out: PbLuc 12pt dose response: IC50

CCc1nc(CN2CCCN(c3ncnc4ccsc34)CC2)no1 [DDD01071387]
IC50 ([1]; HepG2-A16-CD81, read-out: HepG2 tox IC50): > 50 µM | IC50 ([2]; HepG2-A16-CD81, 48 h, 48 h liver stage, HepG2-A16-CD81, read-out: Pbluc (EEF) IC50): 9.87 µM

NC(=O)C1CN(C(=O)Nc2cc(Cl)cc(Cl)c2)CCO1 (stereo not shown) [UCSD-0586016]
HepG2 cytotoxicity 12pt dose response: Maximum inhibition (%) [1]: 92.5% | IC50 [3]: 16.9 µM | inhibition at 2 µM [3]: 11.4% | IC50 [2, 5]: 1.39 µM | Emax ([2]; HepG2-A16-CD81, 48 h): 102%

CCc1nc(CN2CCCN(c3ncnc4ccsc34)CC2)no1 [UCSD-0620395]
HepG2 cytotoxicity 12pt dose response: Maximum inhibition (%) [1]: 49.7% | IC50 [3]: > 50 µM | inhibition at 2 µM [3]: 12.5% | IC50 [2, 5]: 9.87 µM

Cc1ccc(CN2CCCC3(CCN(Cc4ccoc4)CC3)C2)cc1 [UCSD-0791105]
HepG2 cytotoxicity 12pt dose response: Maximum inhibition (%) [1]: 55.5% | IC50 [3]: 43.8 µM | inhibition at 2 µM [3]: -2.23% | IC50 [2, 5]: 7.88 µM | Emax ([2]; HepG2-A16-CD81, 48 h): 99.9%

CCn1nc(C)c2c1cnn2CCNS(=O)(=O)c1cccs1 [UCSD-0797219]
inhibition at 2 µM [3]: -1.63%

CCCNc1cc(-c2c[nH]nc2C2CCN(C(=O)C3CCC3)C2)ccn1 (stereo not shown) [UCSD-0798526]
inhibition at 2 µM [3]: 83.5%

Cc1nc(NCc2nonc2C)cc(C(C)Cn2nc(C)c(C)c2C)n1 (stereo not shown) [UCSD-0799497]
inhibition at 2 µM [3]: 87.2% | inhibition at 10 µM ([2]; HepG2-A16-CD81, primary screen, 10 uM): 60.2%

CCc1nnc2n1CCN(c1nc(C)cc(N(C)C)n1)C2 [UCSD-0803797]
inhibition at 2 µM [3]: 5.32%

CN(CCc1ccncc1)CCc1nccs1 [UCSD-0805829]
HepG2 cytotoxicity 12pt dose response: Maximum inhibition (%) [1]: -1.84% | IC50 [3]: > 50 µM | inhibition at 2 µM [3]: 2.05% | IC50 [2, 5]: 0.495 µM | Emax ([2]; HepG2-A16-CD81, 48 h): 87.7%

CNC(=O)c1cccnc1NCc1ccc(Cn2ccnc2)cc1 [UCSD-0807977]
inhibition at 2 µM [3]: 73.6%

COc1cccc(CN2CCCC2c2ccc[nH]2)c1 (stereo not shown) [UCSD-0808841]
inhibition at 2 µM [3]: -1.63%

O=C(c1cnc(OCC(F)(F)F)c(Cl)c1)N1CCc2ccc(O)cc2C1 [UCSD-0809130]
inhibition at 2 µM [3]: -5.64%

COCCCC(=O)Nc1cc(Cl)c(Cl)cn1 [UCSD-0809266]
inhibition at 2 µM [3]: 59.5%

Cc1cc(C)c(CCNC(=O)CN2CCCN(C(N)=O)CC2)c(C)c1 [UCSD-0809576]
inhibition at 2 µM [3]: -4.31%

CCn1ccnc1CNCC(c1ccc(C)s1)N1CCOCC1 (stereo not shown) [UCSD-0810145]
HepG2 cytotoxicity 12pt dose response: Maximum inhibition (%) [1]: 56.3% | IC50 [3]: 46.2 µM | inhibition at 2 µM [3]: 16.3% | IC50 [2, 5]: 38.3 µM | Emax ([2]; HepG2-A16-CD81, 48 h): 88.9%

CC(C)CC(=O)NCc1cccc(OCCN(C)C2CCOCC2)c1 [UCSD-0810838]
HepG2 cytotoxicity 12pt dose response: Maximum inhibition (%) [1]: 7.9% | IC50 [3]: > 50 µM | inhibition at 2 µM [3]: 38.8% | IC50 [2, 5]: > 50 µM | Emax ([2]; HepG2-A16-CD81, 48 h): 39.1%

CC(C)(C)n1ncc2c1CCCC2NCc1ccc2c(c1)CCO2 (stereo not shown) [UCSD-0811334]
inhibition at 2 µM [3]: 2.05%

O=C(NC1CC1)c1cc(NC(=O)N2CCOCC2)ccc1Cl [UCSD-0811531]
inhibition at 2 µM [3]: 1.26%

Cc1n[nH]cc1CNC1CCN(c2cccc(C(F)(F)F)c2)CC1 [UCSD-0814169]
HepG2 cytotoxicity 12pt dose response: Maximum inhibition (%) [1]: 7.17% | IC50 [3]: > 50 µM | inhibition at 2 µM [3]: -9.01% | IC50 [2, 5]: 9.3 µM | Emax ([2]; HepG2-A16-CD81, 48 h): 88.9%

CCCNC(=O)CN1CCOC(CC)C1 (stereo not shown) [UCSD-0814421]
inhibition at 2 µM [3]: -1.44%

Clc1cnccc1NCc1cccc(COC2CCOCC2)c1 [UCSD-0814625]
inhibition at 2 µM [3]: 43.7%

CC(C)n1cnnc1C1CCCN(S(=O)(=O)CC2CCCC2)C1 (stereo not shown) [UCSD-0815907]
inhibition at 2 µM [3]: 27.3%

CS(=O)(=O)CCC(=O)NC1(c2cccc(C(F)(F)F)c2)CCC1 [UCSD-0816629]
inhibition at 2 µM [3]: -9.29%

CCOc1ccccc1CNC(=O)NCC(c1cnn(C)c1)N(C)C (stereo not shown) [UCSD-0816742]
HepG2 cytotoxicity 12pt dose response: Maximum inhibition (%) [1]: -5.65% | IC50 [3]: > 50 µM | inhibition at 2 µM [3]: 13.9% | IC50 [2, 5]: > 50 µM | Emax ([2]; HepG2-A16-CD81, 48 h): 36.1%

Cc1cccc(NCc2ncc(C(C)(C)C)o2)c1 [UCSD-0816980]
HepG2 cytotoxicity 12pt dose response: Maximum inhibition (%) [1]: 11.5% | IC50 [3]: > 50 µM | inhibition at 2 µM [3]: 14.1% | IC50 [2, 5]: 16.6 µM | Emax ([2]; HepG2-A16-CD81, 48 h): 73.4%

CC(NCc1cccs1)c1ccc(OCc2nccn2C)cc1 (stereo not shown) [UCSD-0817286]
inhibition at 2 µM [3]: -3.54%

CCc1nnsc1C(=O)NC1CCN(CCOc2ccc(Br)cc2)CC1 [UCSD-0818165]
inhibition at 2 µM [3]: 23.1%

Cc1cc(Br)cnc1NCCN1CCC(N(C)C)CC1 [UCSD-0818517]
inhibition at 2 µM [3]: 4.34%

CC(C)CC(C)N(C)C(=O)CCn1cccn1 (stereo not shown) [UCSD-0818578]
inhibition at 2 µM [3]: -0.31%

Cc1nc(C(=O)N2CC[C@@]3(C[C@@H](NS(C)(=O)=O)CCO3)C2)cs1 [UCSD-0821817]
inhibition at 2 µM [3]: 25.6%

c1ccc(OC2COC3(CCN(Cc4ccccn4)CC3)C2)cc1 (stereo not shown) [UCSD-0822599]
inhibition at 2 µM [3]: 16.7%

CN(Cc1ccncc1)C1COC2(CCN(Cc3nccn3C)CC2)C1 (stereo not shown) [UCSD-0822929]
inhibition at 2 µM [3]: 2.08%

CCc1ccccc1OC1CN(C(=O)c2ccnc(OC)c2)C1 [UCSD-0824378]
HepG2 cytotoxicity 12pt dose response: Maximum inhibition (%) [1]: 46.8% | IC50 [3]: > 50 µM | inhibition at 2 µM [3]: 8.15% | IC50 [2, 5]: 16.6 µM | Emax ([2]; HepG2-A16-CD81, 48 h): 80.5%

CN1CCN(CCc2ncnn2-c2ccc3c(c2)OCO3)CC1 [UCSD-0825202]
inhibition at 2 µM [3]: 8.32%

O=C(O)c1cccnc1N1CCN(Cc2ccc(F)cc2)C(CCO)C1 (stereo not shown) [UCSD-0826099]
HepG2 cytotoxicity 12pt dose response: Maximum inhibition (%) [1]: 4.04% | IC50 [3]: > 50 µM | inhibition at 2 µM [3]: 9.42% | IC50 [2, 5]: > 50 µM | Emax ([2]; HepG2-A16-CD81, 48 h): 46.3%

COc1ccc(CN2CCC=C(C(C)NC(C)=O)C2)cc1 (stereo not shown) [UCSD-0826536]
inhibition at 2 µM [3]: 6.35%

OC(c1ccccn1)C1CCN(Cc2cc3n(n2)CCNC3)CC1 (stereo not shown) [UCSD-0826546]
inhibition at 2 µM [3]: -15.7%

CN1CCC(N(C)CCC(=O)N2CCC(CCc3ccccc3)CC2)C1 (stereo not shown) [UCSD-0826822]
inhibition at 2 µM [3]: 18.9%

CCc1c(C(=O)N2CCN(C)[C@@H]3CS(=O)(=O)C[C@@H]32)[nH]c2ccccc12 [UCSD-0827053]
inhibition at 2 µM [3]: -0.18%

Cc1nc(NCc2noc(C3CCCO3)n2)c2sccc2n1 (stereo not shown) [UCSD-0827338]
inhibition at 2 µM [3]: 37.4%

Cc1ccc2cc(C3(O)CCN(C(=O)CSC(C)C)CC3)ccc2n1 [UCSD-0827397]
HepG2 cytotoxicity 12pt dose response: Maximum inhibition (%) [1]: 39.9% | IC50 [3]: > 50 µM | inhibition at 2 µM [3]: 33.3% | IC50 [2, 5]: 16.9 µM

CC(C)(C)c1ncc(C(=O)NCCSc2ccccn2)c(O)n1 [UCSD-0828026]
inhibition at 2 µM [3]: 27.1%

O=C1N(CC2CC2)CCCC1(O)CN1CCc2[nH]ncc2C1 (stereo not shown) [UCSD-0829471]
inhibition at 2 µM [3]: 2.23%

Cc1ccc(NC(=O)CNC(C)CN2CCCCC2)c(F)c1 (stereo not shown) [UCSD-0831198]
inhibition at 2 µM [3]: -1.94%

N[C@@H]1CC[C@H](C(=O)NCCn2cc(Cl)cn2)C1 [UCSD-0831589]
inhibition at 2 µM [3]: -3.85%

NCC1CCN(C2CCN(c3ccc(-c4ccco4)cc3)CC2)C1 (stereo not shown) [UCSD-0833151]
IC50 [3]: 14.1 µM | inhibition at 2 µM [3]: 3.93% | IC50 [2, 5]: 4.7 µM | Emax ([2]; HepG2-A16-CD81, 48 h): 99.4%

COc1ccc(C(=O)C2CCCN(c3cc(OC)ncn3)C2)c(C)c1 (stereo not shown) [UCSD-0833269]
inhibition at 2 µM [3]: 27.4%

COc1cc(Oc2ncccc2C(F)(F)F)ccc1CN1CCCC1 [UCSD-0833465]
inhibition at 2 µM [3]: 1.7%

Cc1cc(C)cc(CN2CCN(Cc3cccc(CCN)c3)CC2=O)c1 [UCSD-0834514]
inhibition at 2 µM [3]: -1.16%

Cc1csc2ncnc(N3CCC(Cn4cc(C(C)(C)O)nn4)CC3)c12 [UCSD-0835726]
IC50 [3]: > 25 µM | inhibition at 2 µM [3]: 4.96% | IC50 [2, 5]: 4.82 µM | Emax ([2]; HepG2-A16-CD81, 48 h): 82.1% | Emax ([4]; maximum inhibition, read-out: rLuc inhibition dose response: Maximum inhibition (%)): 5.67% | IC50 ([4]; read-out: rLuc inhibition dose response: IC50): > 25 µM

CN(C)S(=O)(=O)c1csc(C(=O)N2CCSCC2)c1 [UCSD-0836661]
inhibition at 2 µM [3]: 3.97%

Nc1cc(N2CCC(c3cc(Cc4ccccc4)n[nH]3)CC2)ccn1 [UCSD-0836781]
inhibition at 2 µM [3]: -2.51%

CCS(=O)(=O)N(C)c1ccc(C(=O)N2CCCC(C)C2)cc1 (stereo not shown) [UCSD-0838984]
inhibition at 2 µM [3]: 8.06%

O=C1NCCN1C1CCN(Cc2nc(-c3ccccc3)no2)CC1 [UCSD-0839728]
inhibition at 2 µM [3]: -6.19%

Cc1nn(C)c(Cl)c1C1CCCN1C(=O)c1ccc(C(N)=O)cn1 (stereo not shown) [UCSD-0841146]
inhibition at 2 µM [3]: 26.8%

COc1cccc(-n2nnc(C(=O)N3CCN(C)CC3C)c2C)c1 (stereo not shown) [UCSD-0845525]
inhibition at 2 µM [3]: 69.9%
